Here are results for one compound from patent EP0125420B1, “Water soluble dispersions of chlorthalidone and process for preparing them” (Boehringer Ingelheim Pharmaceuticals Inc., priority 1983, dated 1984).

In brackets after ≈: the same amount, converted by molar mass.

One data set in a line: physchem. It counts as physicochemical. To be noted: organic solvent or mixture. The source says:
The amount of the Cl-C4 alkanol employed in the process of the invention should be sufficient to solubilize both the polymeric carrier and chlorthalidone. It will be apparent to those skilled in the art that best results will be achieved on a large scale using as high a concentration of chlorthalidone as is possible. Thus, optimally the process should be carried out using concentrations of chlorthalidone at the upper limits of solubility.

Data set [1] can be described thus: stability of the solution to ether formation. It counts as physicochemical. To be noted: chlorthalidone added to solution of polymeric carrier in C1-C4 alkanol. The source says: The polymeric carrier polyvinylpyrrolidone (PVP), used in the process of the invention must be pharmaceutically acceptable and be substantially soluble both in water and in the particular Cl-C4 alkanol selected for use in the process. Moreover, the polymeric carrier must be capable of forming a solid state dispersion of chlorthalidone after removal of the alkanol, and be capable of suppressing ether formation arising from reaction of the chlorthalidone with the Cl-C4 alkanol, as discussed above. The ability of a polymeric carrier to suppress ether formation can be determined routinely by dissolving chlorthalidone in a Cl-C4 alkanol, such as methanol, in a glass container in the presence and absence of the polymeric carrier and analyzing aliquots of the solution (taken at varying times up to 24 hours) for chlorthalidone content by HPLC techniques. An acceptable loss of chlorthalidone is up to about 2% after 24 hours at 40°C. The general use of polyvinylpyrrolidone (PVP), to prepare solid state dispersions of pharmaceutical active ingredients is described by the Chiou reference, supra. […] It is believed that PVP suppresses the formation of ethers primarily by complexing trace amounts of heavy metal ions thus making them unavailable for catalysis. […]

The conditions of data set [2]: water; cited from earlier work.

On to `NS(=O)(=O)c1cc(C2(O)NC(=O)c3ccccc32)ccc1Cl` (stereo not drawn) [Chlorthalidone], for which the thermodynamic solubility in the data set “physchem” (ethanol) was found to be 15.5 mg/mL (≈ 45.8 mM); in “physchem” (isopropanol), 3.2 mg/mL (≈ 9.45 mM); in “physchem” (methanol), 76.1 mg/mL (≈ 225 mM). The “stable to ether formation” value in data set [1] (continued heating) is “at least one hour”; in data set [1] (room temperature) it was “at least four days”. The aqueous solubility in data set [2] was roughly 0.12 mg/mL (≈ 0.354 mM).

A word on the thermodynamic solubility: it is solubility found after equilibrating the solid with the medium. For orientation: aqueous solubility means the concentration that dissolves in the medium under given conditions.
